In ChEMBL document CHEMBL5113540, “Fragment-Based Discovery of a Novel, Brain Penetrant, Orally Active HDAC2 Inhibitor” (ACS Med Chem Lett, 2022):
Blank lines part the entries; values can stand above or below the molecule they belong to. Calls of active or inactive are those of the source. No cut-off for these calls is given here.

What was measured:
Histone deacetylase 2 [1] = target: T1, Histone deacetylase 2 (Homo sapiens, UniProt Q92769); experiment: Inhibition of full length recombinant C-terminal FLAG-tagged human HDAC2 expressed in baculovirus-infected Sf9 cells measured for 2 hrs by fluorescence-based assay
T1 sequence (Q92769 whole entry): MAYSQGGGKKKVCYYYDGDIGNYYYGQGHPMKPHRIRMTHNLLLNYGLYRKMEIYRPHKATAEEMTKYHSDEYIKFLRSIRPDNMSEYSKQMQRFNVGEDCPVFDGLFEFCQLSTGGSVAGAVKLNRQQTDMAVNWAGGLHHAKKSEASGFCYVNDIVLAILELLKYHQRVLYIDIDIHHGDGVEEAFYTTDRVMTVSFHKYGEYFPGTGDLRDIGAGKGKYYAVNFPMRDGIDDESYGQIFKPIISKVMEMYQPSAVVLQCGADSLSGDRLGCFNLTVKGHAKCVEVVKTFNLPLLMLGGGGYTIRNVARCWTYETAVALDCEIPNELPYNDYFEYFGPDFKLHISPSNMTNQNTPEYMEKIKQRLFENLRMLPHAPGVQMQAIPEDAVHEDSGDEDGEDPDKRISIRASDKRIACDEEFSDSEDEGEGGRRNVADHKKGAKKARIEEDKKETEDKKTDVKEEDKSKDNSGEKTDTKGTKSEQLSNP

Histone deacetylase 2 [2] = target: T1, Histone deacetylase 2; experiment: Inhibition of full length recombinant C-terminal FLAG-tagged human HDAC2 expressed in baculovirus-infected Sf9 cells at 1 mM measured for 2 hrs by fluorescence-based assay relative to control
SK-N-SH [3] = experiment: Inhibition of […] in human SK-N-SH cells assessed as increase in histone H3K9 acetylation level at 3 to 12 uM measured after 48 hrs by immunochemical detection based analysis; format: cell-based; settings: dose 3-12 µM
SK-N-SH [4] = experiment: Inhibition of […] in human SK-N-SH cells assessed as increase in histone H4K12 acetylation level at 3 to 12 uM measured after 48 hrs by immunochemical detection based analysis; format: cell-based; settings: dose 3-12 µM
[5] = Cmax in C57BL/6 mouse plasma at 30 mg/kg, po measured upto 24 hrs by LC-ESI-MS/MS analysis; format: ADME, organism-based; design: time < 24 hrs, dose 30 mg/kg, route po
[6] = Cmax in C57BL/6 mouse plasma at 100 mg/kg, po measured upto 24 hrs by LC-ESI-MS/MS analysis; format: ADME, organism-based; design: time < 24 hrs, dose 100 mg/kg, route po
[7] = Cmax in C57BL/6 mouse brain at 30 mg/kg, po measured upto 24 hrs by LC-ESI-MS/MS analysis; format: ADME, organism-based; design: dose 30 mg/kg, time < 24 hrs, route po
[8] = Cmax in C57BL/6 mouse brain at 100 mg/kg, po measured upto 6 hrs by LC-ESI-MS/MS analysis; format: ADME, organism-based; design: dose 100 mg/kg, time < 6 hrs, route po
[9] = AUC (0 to infinity) in C57BL/6 mouse plasma at 30 mg/kg, po measured upto 24 hrs by LC-ESI-MS/MS analysis; format: ADME, organism-based; design: time < 24 hrs, dose 30 mg/kg, route po
[10] = AUC (0 to infinity) in C57BL/6 mouse plasma at 100 mg/kg, po measured upto 24 hrs by LC-ESI-MS/MS analysis; format: ADME, organism-based; design: time < 24 hrs, dose 100 mg/kg, route po
[11] = AUC (0 to infinity) in C57BL/6 mouse brain at 30 mg/kg, po measured upto 24 hrs by LC-ESI-MS/MS analysis; format: ADME, organism-based; design: dose 30 mg/kg, time < 24 hrs, route po; settings: in vivo
[12] = AUC (0 to infinity) in C57BL/6 mouse brain at 100 mg/kg, po measured upto 6 hrs by LC-ESI-MS/MS analysis; format: ADME, organism-based; design: dose 100 mg/kg, time < 6 hrs, route po; settings: in vivo
[13] = Half life in C57BL/6 mouse plasma at 30 mg/kg, po measured upto 24 hrs by LC-ESI-MS/MS analysis; format: ADME, organism-based
[14] = Half life in C57BL/6 mouse plasma at 100 mg/kg, po measured upto 24 hrs by LC-ESI-MS/MS analysis; format: ADME, organism-based
[15] = Half life in C57BL/6 mouse brain at 30 mg/kg, po measured upto 24 hrs by LC-ESI-MS/MS analysis; format: ADME, organism-based
[16] = Half life in C57BL/6 mouse brain at 100 mg/kg, po measured upto 6 hrs by LC-ESI-MS/MS analysis; format: ADME, organism-based
[17] = Unbound brain-to-plasma concentration ratio in C57BL/6 mouse by LC-MS/MS analysis; format: ADME; settings: read-out: K(p,uu,brain)
Mus musculus = experiment: In vivo inhibition of HDAC2 in C57BL/6 mouse assessed as increase in histone H4K12 acetylation in brain at 100 mg/kg, po measured after 4 hrs by immunochemical detection method; format: functional, organism-based
[18] = Lipophilicity, log D of the compound at pH 7.4; format: physicochemical; settings: buffer
Histone deacetylase 2 [19] = target: T1, Histone deacetylase 2; experiment: Inhibition of full length recombinant C-terminal FLAG-tagged human HDAC2 expressed in baculovirus-infected Sf9 cells at 2 mM measured for 2 hrs by fluorescence-based assay relative to control

Structure (SMILES): O=C1CCC(c2ccc([C@H]3CN[C@@H](C(=O)N4Cc5ccccc5C4)C3)cc2)N1 (stereo in doubt; 11)
IC50 (Histone deacetylase 2 [1]): 18 µM

Structure (SMILES): N[C@H](CCc1ccccc1)C(=O)N1CCCC1
IC50 (Histone deacetylase 2 [1]): 110 µM

Structure (SMILES): O=C([C@H]1C[C@@H](c2cccc(Cl)c2)CN1)N1Cc2ccccc2C1
IC50 (Histone deacetylase 2 [1]): 2.8 µM

Structure (SMILES): O=C([C@H]1C[C@@H](c2ccc(Cl)cc2)CN1)N1Cc2ccccc2C1
IC50 (Histone deacetylase 2 [1]): 4 µM

Structure (SMILES): O=C([C@H]1C[C@@H](c2ccccc2)CN1)N1CCCC1
IC50 (Histone deacetylase 2 [1]): 26 µM

Structure (SMILES): CN(C)C(=O)C(N)Cc1ccc(F)cc1 (centres undefined)
inhibition (Histone deacetylase 2 [2]): 58% | IC50 (Histone deacetylase 2 [1]): 1000 µM

Structure (SMILES): O=C(O)Cc1ccccc1
inhibition (Histone deacetylase 2 [2]): 40%

Structure (SMILES): O=C1CCC(c2ccc([C@H]3CN[C@@H](C(=O)N4Cc5ccccc5C4)C3)cc2)N1 (stereo in doubt; 10)
IC50 (Histone deacetylase 2 [1]): 26 µM

Structure (SMILES): O=C([C@H]1C[C@@H](c2ccccc2)CN1)N1Cc2ccccc2C1
IC50 (Histone deacetylase 2 [1]): 6.4 µM

Now from value to molecule, other results behind:

IC50 (Histone deacetylase 2 [1]): 1.8 µM
Structure (SMILES): N#Cc1cccnc1N1CCN(C(=O)[C@H]2C[C@@H](c3ccccc3)CN2)CC1

inhibition (Histone deacetylase 2 [2]): 9%
Structure (SMILES): O=C1CCC(c2ccc(Cl)cc2)N1 (centres undefined)

IC50 (Histone deacetylase 2 [1]): 0.85 µM
Structure (SMILES): N#Cc1cccnc1N1CCN(C(=O)[C@H]2C[C@@H](c3cccc(Cl)c3)CN2)CC1

IC50 (Histone deacetylase 2 [1]): 1.7 µM
Structure (SMILES): O=C([C@H]1C[C@@H](c2ccccc2)CN1)N1CCN(c2nccc3ccsc23)CC1

IC50 (Histone deacetylase 2 [1]): 0.5 µM | Cmax [5]: 2400 ng/mL | Cmax [6]: 4000 ng/mL | Cmax [7]: 2300 ng/g | Cmax [8]: 3400 ng/g | AUC(0-inf) [9]: 4200 ng·h/mL | AUC(0-inf) [10]: 18500 ng·h/mL | AUC [11]: 4 µg·h/g | AUC [12]: 13.1 µg·h/g | half-life [13]: 1.1 h | half-life [14]: 3.5 h | half-life [15]: 0.9 h | half-life [16]: 2.7 h | Kp uu [17]: 0.36 | logD [18]: 3.9
Structure (SMILES): O=C([C@H]1C[C@@H](c2cccc(Cl)c2)CN1)N1CCN(c2nccc3ccsc23)CC1
inhibition (SK-N-SH [3]): Active | inhibition (SK-N-SH [4]): Active | inhibition (Mus musculus): Active

inhibition (Histone deacetylase 2 [2]): 4%
Structure (SMILES): Cc1cc(O)cc(=O)o1

inhibition (Histone deacetylase 2 [19]): 64%
Structure (SMILES): CN(C)C(=O)[C@H](N)CCc1ccccc1
